In a melting point compilation (Tetko et al.):

`NC(=O)c1cccc(OCCC(=O)O)c1` showed a melting point of 196 to 198 °C.
`O=c1[nH]c(CN2CCNCC2)nc2ccccc12` gave a melting point of 167 to 169 °C.
Work on `Nc1nc2cc(Cl)cc(Cl)c2o1` yielded a melting point of 247 to 249 °C.
Compound `N#CCC(=O)N1CCN(C(c2ccccc2)c2ccccc2)CC1` has a melting point of 110 to 112 °C.
In the case of `Nc1cnc(Cc2ccc(F)cc2)nc1`, the melting point is reported as 123 to 125 °C.
For `O=[N+]([O-])c1cc(S(=O)(=O)Nc2ccccc2)ccc1Cl`, the melting point was 87 to 89 °C.
With `CC1(c2c(F)cccc2F)NC(=O)NC1=O` (configuration not stated) the melting point was 215 to 217 °C.
`CC(C)NS(=O)(=O)c1ccccc1CN` showed a melting point of 79 to 81 °C.
`O=C(O)c1cc(/C=C/c2ccc(C(F)(F)F)cc2)nc2ccc(Br)cc12` gave a melting point of 316 to 318 °C.
In the case of `CN(CC(=O)O)c1ccc(Cl)cn1`, the melting point is reported as 135 to 137 °C.
With `O=C(O)c1cccc(N2CC=CC2)c1` the melting point was 193 to 195 °C.
In the case of `CCc1ccc(N2CCC(=O)CC2)cc1`, the melting point is reported as 43 to 45 °C.
In the case of `O=C(O)c1cc(S(=O)(=O)N2CCCCC2)ccc1Br`, the melting point is reported as 230 to 232 °C.
`NC(=O)Cc1ccc(F)cc1` showed a melting point of 155 to 157 °C.
For `CCc1cc2c(=O)[nH]cnc2s1`, the melting point was 183 to 185 °C.
Compound `NCc1ccc(-n2cnc3ccccc32)nc1` has a melting point of 97 to 99 °C.
`COc1ccccc1NS(=O)(=O)c1ccc2oc(N)nc2c1` gave a melting point of 210 to 212 °C.
For `COCCCN1C(=O)c2ccc(C(=O)O)cc2C1=O`, the melting point was 147 to 149 °C.
With `Cc1nn(Cc2cccc(Cl)c2)cc1C(=O)O` the melting point was 167 to 169 °C.
Work on `O=c1[nH]ccc2ccn(Cc3ccccc3)c12` yielded a melting point of 177 to 179 °C.
Work on `Cc1cc(C(=O)O)ccc1NS(=O)(=O)C(F)(F)F` yielded a melting point of 203 to 205 °C.
Work on `COC(=O)Cc1cc(=O)n(C(C)(C)C)[nH]1` yielded a melting point of 110 to 112 °C.
With `Cc1ccc(N)cc1NC(=O)c1ccccc1I` the melting point was 190 to 192 °C.
In the case of `O=C(O)C1(c2cccc(F)c2)CCC1`, the melting point is reported as 67 to 69 °C.
In the case of `NCC(O)COc1cccc(Cl)c1Cl` (configuration not stated), the melting point is reported as 110 to 112 °C.
With `CC(=O)Nc1c(C)n[nH]c1C` the melting point was 202 to 204 °C.
Work on `O=[N+]([O-])c1ccc(O)c(Br)c1` yielded a melting point of 111 to 113 °C.
For `O=C(O)Cn1ccccc1=O`, the melting point was 220 to 222 °C.
`CC(=O)c1cccc(S(=O)(=O)NC(CC(N)=O)C(=O)O)c1` (configuration not stated) showed a melting point of 191 to 193 °C.
With `O=[N+]([O-])c1cc(S(=O)(=O)Cl)c(F)cc1F` the melting point was 46 to 48 °C.
In the case of `CS(=O)(=O)c1ccc(C(N)=NO)cc1`, the melting point is reported as 196 to 198 °C.
Work on `Nc1c(C(=O)O)cnc2ccccc12` yielded a melting point of 303 to 305 °C.
In the case of `CC(C)C1CCNC(=O)CC1` (configuration not stated), the melting point is reported as 76 to 78 °C.
In the case of `Cc1ccc(-n2nc(C(C)(C)C)cc2N)cc1`, the melting point is reported as 116 to 118 °C.
`CS(=O)(=O)CCC(Cc1cccc(Br)c1)C(=O)O` (configuration not stated) showed a melting point of 61 to 63 °C.
`O=C(c1ccsc1)N1CCCNCC1` showed a melting point of 98 to 100 °C.
Compound `NS(=O)(=O)c1ccc2c(c1)NCC2` has a melting point of 164 to 166 °C.
`Nc1sc2c(c1C(=O)c1cccc(Cl)c1)CCC2` gave a melting point of 129 to 131 °C.
Work on `O=C(O)CCc1nc(-c2ccoc2)no1` yielded a melting point of 143 to 145 °C.
With `Cc1nsc(N)c1C(=O)O` the melting point was 158 to 160 °C.
`O=c1c(-c2ccccc2)coc2cc(O)ccc12` showed a melting point of 201 to 203 °C.
With `Cc1ccc(CCCCC(=O)O)cc1` the melting point was 75 to 77 °C.
With `FC(F)(F)c1ccc(CNc2ccc(Br)cc2)cc1` the melting point was 70 to 72 °C.
Work on `Cc1[nH]c2c(C(=O)O)cccc2c1C` yielded a melting point of 206 to 208 °C.
`O=C(Nc1ccccc1)Nc1ccc(C(=O)O)cc1` showed a melting point of 260 to 262 °C.
For `Cc1csc(NC(=O)Cc2ccc(N)cc2)n1`, the melting point was 143 to 145 °C.
Compound `Nc1nc2cnccc2s1` has a melting point of 275 to 277 °C.
For `Cc1cscc1C(=O)O`, the melting point was 135 to 137 °C.
With `CC(=O)Nc1cc(C(=O)CCl)ccc1O` the melting point was 188 to 190 °C.
`O=C1COc2c(Cl)cccc21` showed a melting point of 108 to 110 °C.
With `Cc1ccc(-c2nc(S)n[nH]2)cc1` the melting point was 125 to 128 °C.
For `Cc1cccc(C)c1NC(=O)CCCCl`, the melting point was 104 to 106 °C.
Compound `CCOCCCNC(=O)CCl` has a melting point of 25 to 27 °C.
In the case of `Nc1ccc(S(=O)(=O)NC2CCC(O)CC2)cc1` (configuration not stated), the melting point is reported as 154 to 156 °C.
`CCc1cc(O)ncc1Br` gave a melting point of 109 to 111 °C.
Work on `CN1CCCC[C@@H]1C(=O)O` yielded a melting point of 219 to 221 °C.
For `CCC(C)C(O)C(=O)O` (configuration not stated), the melting point was 45 to 47 °C.
`COc1c([N+](=O)[O-])ccc(C=O)c1OC(F)F` gave a melting point of 95 to 97 °C.
With `N#CC(=O)c1ccc(Cl)cc1` the melting point was 41 to 43 °C.
For `O=C(O)CCc1ncc(-c2ccccc2Br)o1`, the melting point was 180 to 182 °C.
`CC1CN(Cc2csc(N)n2)CC(C)O1` (configuration not stated) showed a melting point of 132 to 134 °C.
With `O=C(CSc1nnc(S)s1)c1ccccc1` the melting point was 188 to 192 °C.
Work on `Oc1ccccc1Oc1ccccn1` yielded a melting point of 110 to 112 °C.
Compound `Cc1c(S(=O)(=O)Cl)oc2ccc(F)cc12` has a melting point of 81 to 83 °C.
In the case of `COc1ccc(OC)c(NC(=O)CCl)c1`, the melting point is reported as 169 to 171 °C.
Work on `O=C(O)C(=O)NCc1ccc(F)cc1` yielded a melting point of 134 to 136 °C.
With `CN1CCN(C(=O)CC#N)CC1` the melting point was 118 to 120 °C.
`O=C(CCl)c1nnc(-c2ccccc2)o1` showed a melting point of 123 to 125 °C.
In the case of `CCOC(=O)N1CCN(S(=O)(=O)Cl)CC1`, the melting point is reported as 67 to 69 °C.
For `CCOC(=O)c1cnc2cc(Br)ccc2c1O`, the melting point was 329 to 331 °C.
Work on `O=C(O)c1cn(-c2ccccc2)nc1-c1ccncc1` yielded a melting point of 235 to 237 °C.
Work on `CS(=O)(=O)c1ccc(OCCBr)cc1` yielded a melting point of 100 to 102 °C.
